Laboratory results from article PMC5099976 (ACS chemical biology, 2016).
pKi: −log10 of the molar value.

What was measured:
[1] = tested on: A156T NS3/4A protease variant; type: binding, Hepatitis C Virus; details: A156T relative to WT; Table S4
[2] = target: A156T NS3/4A protease variant (Hepatitis C virus genotype 1a, UniProt P27958, A1182T/C1073S/C1078L/C1185S/I1043Q/I1044E/I1098T/L1039E/L1040E/L1047Q/N1200S/T1100M/T1173A/V1687N); type: binding; details: binding A156T protease; ITC at 25 °C
[3] = target: WT genotype 1a NS3/4A protease (Hepatitis C virus genotype 1a, UniProt P27958, C1073S/C1078L/C1185S/I1043Q/I1044E/I1098T/L1039E/L1040E/L1047Q/N1200S/T1100M/T1173A); experiment: Isothermal titration calorimetry, WT protease; type: binding; details: for pKi: WT protease, Table S4
[4] = binding WT protease, ITC at 25 °C

SMILES | enthalpic change due to A156T mutation [1] | entropic loss due to A156T mutation [1] | enthalpy of binding [2] | pKi [3] | pKi ([3]; listed as P1–P3) | enthalpy of binding [3, 4] | entropic contribution to binding (−TΔS) [3, 4]
C=C[C@@H]1C[C@]1(NC(=O)[C@@H]1C[C@@H]2CN1C(=O)[C@H](C(C)(C)C)NC(=O)O[C@@H]1C[C@H]1CCCCCc1nc3ccc(OC)cc3nc1O2)C(=O)NS(=O)(=O)C1CC1 [MK-5172, reference compound] | 2.7 kcal/mol | 2.2 kcal/mol |  |  |  |  | 
CCc1nc2ccc(OC)cc2nc1O[C@@H]1C[C@H]2C(=O)N[C@]3(C(=O)NS(=O)(=O)C4CC4)C[C@H]3/C=C\CCCCC[C@H](NC(=O)OC(C)(C)C)C(=O)N2C1 [5172-mcP1P3] | -0.5 kcal/mol | 3.3 kcal/mol | -6.3 kcal/mol | 8.71 | 8.70 | -5.8 kcal/mol | -6.0 kcal/mol
